We go through two compounds from patent EP0011608A1, “Novel allenic amine and acid addition salts thereof, a process for their preparation, pharmaceutical preparations comprising them and the use of these compounds in the preparation of pharmaceutical compositions” (priority 1978, dated 1980).

Common to all, as to assay type: in vivo
The target of experiment [1] is T1, monoamine oxidase enzyme (Mus musculus, UniProt Q8BW75).
T1 construct: from tissue; host or cells: mouse brain slices (hypothalamus, thalamus, midbrain), ex vivo after i.p. dosing
T1 sequence (Q8BW75 1-520): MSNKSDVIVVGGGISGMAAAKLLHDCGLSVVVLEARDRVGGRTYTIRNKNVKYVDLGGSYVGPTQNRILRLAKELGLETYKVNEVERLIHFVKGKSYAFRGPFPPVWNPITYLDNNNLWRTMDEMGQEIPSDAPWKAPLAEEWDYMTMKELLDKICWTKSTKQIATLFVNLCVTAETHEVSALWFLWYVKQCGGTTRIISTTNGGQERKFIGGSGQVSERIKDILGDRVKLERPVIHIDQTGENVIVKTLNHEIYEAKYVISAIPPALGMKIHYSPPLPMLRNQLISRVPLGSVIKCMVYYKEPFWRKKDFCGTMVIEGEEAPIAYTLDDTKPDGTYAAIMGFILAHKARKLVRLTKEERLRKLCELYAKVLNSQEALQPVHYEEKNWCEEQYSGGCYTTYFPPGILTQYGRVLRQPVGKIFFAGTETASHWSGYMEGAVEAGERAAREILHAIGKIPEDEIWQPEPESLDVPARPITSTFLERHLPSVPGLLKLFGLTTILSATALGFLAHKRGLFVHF
The experiment in a line: MAO inhibition in mouse brain slices after intraperitoneal injection: deamination of [3H]phenethylamine. Conditions: for inhibition at 4 mg/kg: dose 4 mg/kg intraperitoneal; for inhibition at 29 mg/kg: dose 29 mg/kg intraperitoneal; for ED50: effective dose for 50 % inhibition; for inhibition at 32 mg/kg: dose 32 mg/kg intraperitoneal. An excerpt: (§1) It is not possible by experimental means to induce depressions in laboratory animals. In order to evaluate a possible antidepressive effect of new substances biochemical-pharmacological test methods must be resorted to. One such method, which seems to give good indication of the potential antidepressive effects of the test substances, is a test for monoamine oxidase enzyme inhibiting activity. The deamination of [^3H]phenethylamine, [^3H]tyramine, and [^14C]-5-hydroxytryptamine by brain slices was determined according to the following method.
(§2) Slices (100 mg) of the central part of the mouse brain including hypothalamus, thalamus, and midbrain were incubated for 5 min with 1 x 10^-7 M of the labeled substrate in 2.0 ml of Krebs-Henseleit's buffer, pH 7.4, containing […] of glucose, The slices were then homogenized in an all-glass homogenizer with 1.0 ml of 1 N HCl containing carrier amounts ([…]) of the nonlabeled amine and its deaminated acid product. An aliquot of 1.1 ml of a brain homogenate in 10 vol of 1 N HCl containing the substrate and product carriers was added to 0.5 ml of the incubation medium. The brain homogenate was added in order to facilitate the extraction of tyramine and 5-HT. The acid and neutral products were extracted into 6.0 ml of ethyl acetate by vigorous shaking for 10 s. After centrifugation, 4.0 ml of the organic phase was taken for determination of radicactivity, The remaining ethyl acetate was removed; the water phase was made alkaline with solid sodium carbonate and 1.0 ml of 0.5 M borate buffer, pH 10. The amine was then extracted into 6.0 ml of ethyl acetate and 4.0 ml of the organic phase was taken for the assay. The deamination of [^3H]tyramine and [^14C]-5-HT was determined simultaneously by utilizing the double-labeling technique. (S.B. Ross, A.L. Renyi, and S.-O. Ögren, Eur. J. Pharmacol., 17, 107 (1972)).
[…] The inhibition was expressed in percent and calculated on the total formation of acid and neutral products formed in the brain slices of animals treated with the test compounds or with saline.

For experiment [2], the system named is monoamine oxidase enzyme. The experiment in a line: MAO inhibition in mouse brain slices after intraperitoneal injection: deamination of [3H]tyramine. The conditions noted are these: for ED50: deamination of tyramine, effective dose for 50 % inhibition, 1 h after adm.; for inhibition of the MAO activity against tyramine (in words): mouse, in vivo.
Description: as §1, §2
(§3) Inhibition of the MAO activity in the brain slices was determined 1 h after the intraperitoneal injection of the test compound. The inhibition was expressed in percent and calculated on the total formation of acid and neutral products formed in the brain slices of animals treated with the test compounds or with saline.

Experiment [3] has as its target T2, monoamine oxidase enzyme (Mus musculus, UniProt Q64133).
T2 construct: from tissue; host or cells: mouse brain slices (hypothalamus, thalamus, midbrain), ex vivo after i.p. dosing
T2 sequence (Q64133 1-526): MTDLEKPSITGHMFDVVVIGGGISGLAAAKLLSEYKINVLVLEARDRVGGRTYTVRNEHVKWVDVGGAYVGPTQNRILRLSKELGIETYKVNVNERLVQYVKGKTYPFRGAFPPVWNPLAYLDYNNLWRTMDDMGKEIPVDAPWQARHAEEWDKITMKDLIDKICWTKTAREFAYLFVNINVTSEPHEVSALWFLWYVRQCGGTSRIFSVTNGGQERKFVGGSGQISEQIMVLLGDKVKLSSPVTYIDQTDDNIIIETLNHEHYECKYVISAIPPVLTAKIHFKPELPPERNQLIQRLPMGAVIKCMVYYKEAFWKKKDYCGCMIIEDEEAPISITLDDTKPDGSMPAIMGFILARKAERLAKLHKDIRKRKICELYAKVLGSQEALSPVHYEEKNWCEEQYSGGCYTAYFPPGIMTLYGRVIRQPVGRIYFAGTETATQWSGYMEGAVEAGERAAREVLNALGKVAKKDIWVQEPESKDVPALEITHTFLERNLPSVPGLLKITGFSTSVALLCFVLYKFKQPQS
The experiment is described as follows: MAO inhibition in mouse brain slices after intraperitoneal injection: deamination of [14C]-5-hydroxytryptamine. The conditions noted are these: for inhibition of the MAO activity against 5-hydroxytryptamine (in words): in vivo; for ED50: effective dose for 50 % inhibition.
Description: as §1, §2, §3

[4] abbreviates: mouse, ip, deamination of phenethylamine, 1 h after adm.
Setting [5] is: mouse, ip, deamination of phenethylamine, 24 h after adm.
The mark [6] stands for this setting: comparison of ACS 104 with ACS 64.
Where [7] appears, read: mouse, ip, deamination of 5-hydroxytryptamine, 1 h after adm.

In general, inhibition refers to the percentage by which the read-out fell short of the control. Low values mean a response near the control, high ones a response far below the control. One may read the ED50 as the midpoint of the dose-response relation. A high value points to a need for a large dose.

`C=C=C(CN)Cc1ccccc1.Cl` [ACS 104, 2-benzyl-2,3-butadienamine hydrochloride]: the “potency relative to the prior art compound, inhibition of the MAO activity against phenethylamine” value on monoamine oxidase enzyme [1] (comparison of ED50-values of ACS 104 and ACS 64) is “about three times as potent as the prior art compound”. On monoamine oxidase enzyme [1] (mouse, ip, deamination of phenethylamine, dose 1 mg/kg intraperitoneal, 1 h after adm.), this compound displayed an inhibition at 1 mg/kg of 19 ± 3%. This compound showed an inhibition at 4 mg/kg at monoamine oxidase enzyme [1] (setting [4]) of 67 ± 2%. Also, the inhibition at 29 mg/kg came out at 92 ± 1% against monoamine oxidase enzyme [1] (setting [4]); 39 ± 2% at monoamine oxidase enzyme [1] (setting [5]); 48 ± 2% against monoamine oxidase enzyme [3] (mouse, ip, deamination of 5-hydroxytryptamine, dose 29 mg/kg intraperitoneal, 1 h after adm.). Further, the figures for the ED50 at monoamine oxidase enzyme [1] (setting [4]), in the experiment with monoamine oxidase enzyme [2] and at monoamine oxidase enzyme [3] (setting [7]) were 16 µmol/kg, <150 µmol/kg and ~150 µmol/kg, respectively. For the same compound, the “potency relative to the prior art compound, MAO activity against tyramine” value in the experiment on monoamine oxidase enzyme [2] (setting [6]) was “somewhat, more potent than the prior art compound”. In the experiment on monoamine oxidase enzyme [2], the “inhibition of the MAO activity against tyramine (in words)” value is given as “only weak inhibitors”. Further, the “potency relative to the prior art compound, MAO activity against 5-hydroxytryptamine” value on monoamine oxidase enzyme [3] (setting [6]) is listed as “somewhat, more potent than the prior art compound”. At monoamine oxidase enzyme [3] (mouse), the “inhibition of the MAO activity against 5-hydroxytryptamine (in words)” value is “only weak inhibitors”.

`C=C=CCN(C)Cc1ccccc1.Cl` [ACS 64, N-2,3-butadienyl--N-methylbenzylamine hydrochloride, reference compound]: the inhibition at 4 mg/kg on monoamine oxidase enzyme [1] (setting [4]) was determined as 31 ± 7%. Further, the inhibition at 32 mg/kg came out at 86 ± 3% on monoamine oxidase enzyme [1] (setting [4]); 70 ± 1% on monoamine oxidase enzyme [1] (setting [5]); 16 ± 2% against monoamine oxidase enzyme [3] (mouse, ip, deamination of 5-hydroxytryptamine, dose 32 mg/kg intraperitoneal, 1 h after adm.). The ED50 was 50 µmol/kg at monoamine oxidase enzyme [1] (setting [4]), >150 µmol/kg with monoamine oxidase enzyme [2] and > 150 µmol/kg at monoamine oxidase enzyme [3] (setting [7]). The “inhibition of the MAO activity against tyramine (in words)” value in the experiment with monoamine oxidase enzyme [2] is on record as “only weak inhibitors”. Besides, at monoamine oxidase enzyme [3] (mouse), the “inhibition of the MAO activity against 5-hydroxytryptamine (in words)” value was “only weak inhibitors”.
